Laboratory results: US10563263B2, “Genetic polymorphisms associated with statin response and cardiovascular diseases, methods of detection and uses thereof” (CELERA CORPORATION, priority 2010, dated 2020)

Test system: CHD (fatal CHD, definite non-fatal MI, or revascularization)
Test: CARE: SNP by pravastatin treatment interaction, logistic regression (synergy index), CHD endpoint
Assay type: in vivo, human
Settings: for OR (synergy index, SNP by pravastatin treatment interaction): CARE; for OR (synergy index), CARE, Prava vs Placebo: CHD endpoint
Excerpt: CARE was a secondary prevention trial and WOSCOPS was a primary prevention trial.
The CHD endpoint was defined in the analyses herein of CARE as a composite endpoint of fatal CHD, definite non-fatal MI, or revascularization, and was defined in the analyses herein of WOSCOPS as a composite endpoint of death from CHD, nonfatal MI, or revascularization. In both the CARE and WOSCOPS analyses herein, the CVD endpoint was defined as a composite endpoint of CHD or stroke. […] Revascularization, which can include percutaneous transluminal coronary angioplasty (PTCA), stent placement, and coronary artery bypass graft (CABG), are medical interventions that indicate the presence of CHD.
Cohort and case-only study designs were used to identify SNPs associated with response to statin treatment.
For each SNP, a logistic regression model having treatment status as the dependent variable and SNP as the independent predictor variable was performed, with terms for age, sex and race included in the model as covariates. The anti-log of the regression coefficient corresponding to the SNP is an estimate of the synergy index (SI) (Davis et al., “Imputing gene-treatment interactions when the genotype distribution is unknown using case-only and putative placebo analyses-a new method for the Genetics of Hypertension Associated Treatment (GenHAT) study”, Statistics in Medicine 23: (2004), pages 2413-2427). The SI is a ratio of odds ratios: for example in the CARE and WOSCOPS studies, the SI represents the factor by which the odds-ratio of statin treatment, compared with placebo, among major homozygous individuals is multiplied by in order to obtain the odds-ratio of treatment vs. placebo among heterozygous individuals; and multiplied by a second time to obtain the odds-ratio of treatment vs. placebo in minor homozygous individuals. The case-only study design results in a valid estimate of the SI under the assumption that genotype and treatment are independent in the population. In a randomized clinical trial, genotype and treatment are independent by design. The p-value for the regression coefficient corresponding to the SNP results from a test of the null hypothesis that the regression coefficient is equal to zero (SI is equal to one) and thus small p-values indicate the SI is unlikely equal to one and that the effect of treatment likely differs by genotype.
A case-only study design was used to test whether the reduction of CHD events by statin therapy (for CARE and WOSCOPS studies) differed according to genotype (a treatment by SNP interaction) for each SNP evaluated in the study.

CC[C@H](C)C(=O)O[C@H]1C[C@H](O)C=C2C=C[C@H](C)[C@H](CC[C@@H](O)C[C@@H](O)CC(=O)O)[C@H]21 [Pravastatin, pravastatin]
OR (synergy index, SNP by pravastatin treatment interaction) (rs992695, Imputed, allele C, model ADD, NMISS 790, 95% CI 0.4976-0.8019): 0.6317 | OR (synergy index, SNP by pravastatin treatment interaction) (rs992695, Imputed, allele C, model DOM, NMISS 790, 95% CI 0.4546-0.8068): 0.6056 | OR (synergy index, SNP by pravastatin treatment interaction) (rs9881685, Imputed, allele A, model ADD, NMISS 799, 95% CI 0.3695-0.7488): 0.526 | OR (synergy index, SNP by pravastatin treatment interaction) (rs9881685, Imputed, allele A, model DOM, NMISS 799, 95% CI 0.3327-0.7106): 0.4862 | OR (synergy index, SNP by pravastatin treatment interaction) (rs9936999, Imputed, allele G, model DOM, NMISS 485, 95% CI 1.294-2.746): 1.885 | OR (synergy index), CARE, Prava vs Placebo (SNP rs198462 (A1 G, A2 A), rec model, Caseonly): 1.57 | OR (synergy index), CARE, Prava vs Placebo (SNP rs198476 (A1 G, A2 A), rec model, cohort): 1.58 | OR (synergy index), CARE, Prava vs Placebo (SNP rs471579 (A1 A, A2 C), add model, Caseonly): 1.26 | OR (synergy index), CARE, Prava vs Placebo (SNP rs1324012 (A1 A, A2 G), add model, Caseonly): 0.78 | OR (synergy index), CARE, Prava vs Placebo (SNP rs1917527 (A1 A, A2 C), rec model, Caseonly): 0.34 | OR (synergy index), CARE, Prava vs Placebo (SNP rs2768652 (A1 C, A2 T), add model, cohort): 1.22 | OR (synergy index), CARE, Prava vs Placebo (SNP rs6563805 (A1 A, A2 G), add model, cohort): 0.76 | OR (synergy index), CARE, Prava vs Placebo (SNP rs7873371 (A1 A, A2 G), add model, Caseonly): 1.25 | OR (synergy index), CARE, Prava vs Placebo (SNP rs12553453 (A1 C, A2 A), add model, cohort): 1.22 | OR (synergy index), CARE, Prava vs Placebo (SNP rs12635482 (A1 C, A2 A), rec model, cohort): 0.54 | CARE OR (rs1948 allele A vs G (ref), Source CaseOnly): 1.52 | CARE OR (rs151806 allele G vs A (ref), Source cohort): 0.60 | CARE OR (rs205279 allele A vs G (ref), Source Caseonly): 1.94 | CARE OR (rs238272 allele A vs G (ref), Source CaseOnly): 1.44 | CARE OR (rs312929 allele G vs A (ref), Source cohort): 0.72 | CARE OR (rs316720 allele G vs A (ref), Source cohort): 0.67 | CARE OR (rs331555 allele A vs C (ref), Source cohort): 0.72 | CARE OR (rs354342 allele A vs G (ref), Source Caseonly): 0.70 | CARE OR (rs453625, allele A1 A (non-ref), A2 G (ref), source cohort, endpoint/model not given): 0.66 | CARE OR (rs610118 allele G vs A (ref), Source cohort): 0.43 | CARE OR (rs669684 allele G vs A (ref), Source cohort): 0.69 | CARE OR (rs842796 allele A vs G (ref), Source cohort): 1.72 | CARE OR (rs886469 allele G vs A (ref), Source cohort): 0.70 | CARE OR (rs969356 allele G vs A (ref), Source cohort): 0.69 | CARE OR (rs1035618 allele A vs C (ref), Source Caseonly): 1.38 | CARE OR (rs1076733, allele A1 A (non-ref), A2 G (ref), source cohort, endpoint/model not given): 0.70 | CARE OR (rs1182878, allele A1 A (non-ref), A2 G (ref), source cohort, endpoint/model not given): 0.79 | CARE OR (rs1343563 allele C vs A (ref), Source cohort): 0.61 | CARE OR (rs1349282 allele A vs G (ref), Source cohort): 0.55 | CARE OR (rs1382787 allele G vs A (ref), Source cohort): 1.37 | CARE OR (rs1474396, allele A1 A (non-ref), A2 C (ref), source cohort, endpoint/model not given): 1.35 | CARE OR (rs1615197 allele G vs A (ref), Source CaseOnly): 1.54 | CARE OR (rs1884897 allele A vs G (ref), Source cohort): 2.24 | CARE OR (rs2008165 allele G vs A (ref), Source cohort): 0.57 | CARE OR (rs2023650 allele A vs G (ref), Source cohort): 0.76 | CARE OR (rs2060411 allele A vs G (ref), Source cohort): 1.37 | CARE OR (rs2104506 allele A vs C (ref), Source cohort): 0.75 | CARE OR (rs2129571, allele A1 A (non-ref), A2 G (ref), source cohort, endpoint/model not given): 0.62 | CARE OR (rs2145540 allele A vs G (ref), Source cohort): 0.51 | CARE OR (rs2268650 allele A vs G (ref), Source cohort): 0.64 | CARE OR (rs2273816 allele A vs G (ref), Source CaseOnly): 1.56 | CARE OR (rs2290193, allele A1 C (non-ref), A2 A (ref), source cohort, endpoint/model not given): 0.53 | CARE OR (rs2376764 allele A vs G (ref), Source Caseonly): 0.61 | CARE OR (rs2418412 allele G vs A (ref), Source cohort): 2.20 | CARE OR (rs2483641, allele A1 A (non-ref), A2 G (ref), source cohort, endpoint/model not given): 0.65 | CARE OR (rs2534752 allele G vs A (ref), Source cohort): 1.60 | CARE OR (rs2626130 allele G vs A (ref), Source cohort): 1.29 | CARE OR (rs2695026 allele A vs G (ref), Source Caseonly): 0.70 | CARE OR (rs2793086 allele C vs A (ref), Source cohort): 0.61 | CARE OR (rs2941528 allele A vs G (ref), Source CaseOnly): 0.72 | CARE OR (rs3000490 allele G vs A (ref), Source cohort): 1.45 | CARE OR (rs3213616 allele A vs G (ref), Source cohort): 0.62
